Where two headings read alike, the source gives them in different places.
Experiments:
[1] = Pharmacokinetic study of sarpogrelate hydrochloride i.v. in rats; type: in vivo, rat; details: after sarpogrelate hydrochloride 2 mg/kg i.v.
Protocol: Pharmacokinetic study was performed in male Wistar rats equipped with the jugular vein cannulas. Sarpogrelate hydrochloride was formulated in Pharmasolv: PBS buffer (5:95) mixture and administered at the dose of 2 mg/kg intravenously. Blood samples were collected from the jugular vein using heparin as anticoagulant at the scheduled time-points: 5 min, 15 min, 30 min, 1 h, 1.5 h, 2 h, 4 h, and 6 h. An LC-MS/MS bioanalytical method was used for the simultaneous quantification of sarpogrelate and M1 in plasma samples. […] Formation of M1 metabolite of sarpogrelate was rapid as the highest M1 concentrations were measured at the first sampling time points.

[2] = type: in vivo, rat; details: 10 mg/kg intraperitoneally, male SD rats
Protocol: Adult male SD rats were pretreated with the compound 146 or M1 (10 mg/kg intraperitoneally) and the brain and blood plasma were collected 30, 60, 120 and 240 min after M1 administration. The amount of compound in brain tissue extracts was measured using the UPLC/MS analysis.

[3] = biological target: CYP2D6 (Homo sapiens (Human), UniProt P10635); details: dextromethorphan as substrate; cited from earlier work
Chain of CYP2D6 (P10635 whole entry): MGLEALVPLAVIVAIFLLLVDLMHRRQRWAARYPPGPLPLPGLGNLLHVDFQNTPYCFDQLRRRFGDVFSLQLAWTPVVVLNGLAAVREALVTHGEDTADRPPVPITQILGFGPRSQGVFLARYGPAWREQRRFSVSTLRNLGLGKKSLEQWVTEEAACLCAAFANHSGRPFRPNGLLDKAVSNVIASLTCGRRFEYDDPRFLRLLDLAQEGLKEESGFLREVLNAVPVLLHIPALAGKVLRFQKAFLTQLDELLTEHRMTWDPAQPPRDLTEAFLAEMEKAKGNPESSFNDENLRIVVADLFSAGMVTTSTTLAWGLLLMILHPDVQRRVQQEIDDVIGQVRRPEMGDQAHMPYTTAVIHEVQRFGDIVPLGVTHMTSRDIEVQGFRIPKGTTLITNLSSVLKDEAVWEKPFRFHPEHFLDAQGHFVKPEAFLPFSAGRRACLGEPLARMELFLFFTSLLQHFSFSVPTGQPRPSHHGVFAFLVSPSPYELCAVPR

[4] = tested on: MK-801-induced hyperactivity; details: 0.1 and 0.3 mg/kg s.c.; MK-801 0.3 mg/kg i.p.; mice; cited from earlier work
[5] = tested on: Parkinson's disease psychosis; details: cited from earlier work
[6] = tested on: locomotor activity, stereotypy, ataxia; details: rats, cited from earlier work; for PCP-elicited hyperactivity / motor behaviors after pretreatment: 10 mg/kg PCP; for behavioral effects given alone (locomotor hyperactivity, stereotypy, ataxia): DO 15-120 mg/kg, DEX 15-120 mg/kg, PCP 1.25-20 mg/kg
[7] = cited from earlier work; for basal insulin secretion: mouse or human islets or in vivo
[8] = tested on: NMDA receptors; details: compared to that of DEX; cited from earlier work
[9] = tested on: PCP-induced hyperactivity; assay: Phencyclidine-induced hyperactivity in rats (sarpogrelate and dextromethorphan); type: in vivo, rat; details: dextromethorphan by itself
[10] = Blood glucose levels and oral glucose tolerance in rats; type: in vivo, rat; details: given alone, intraperitoneal
Protocol: Test substances were administered to male Wistar (Han) rats (180-280 g at the beginning of the experiments; Janvier Labs) housed in groups under free access to food and water. After overnight food deprivation, the tip of the tail was cut, each rat was weighed, housed individually and left without stress in a quiet room. Approximately 1 hour later, baseline blood glucose was measured from a drop of blood collected from the tail tip, using a commercially available glucose-meter (OneTouch®, Lifescan) and then rats received intraperitoneal injection of sarpogrelate and/or dextromethorphan and 30 min later blood glucose was measured again and rats immediately challenged with glucose at 2 g/kg by oral gavage. Then, blood glucose was measured at 6 time-points until 180 minutes post-glucose challenge.

[11] = tested on: rat primary mixed mesencephalic neuron-glia cultures; details: 1-10 micro M; cited from earlier work
[12] = cited from earlier work
[13] = high doses; cited from earlier work
[14] = tested on: insomnia; details: human, in vivo; cited from earlier work
[15] = tested on: treatment-resistant major depressive disorder; details: in vivo; cited from earlier work
[16] = tested on: generalized anxiety disorder; details: human, in vivo; cited from earlier work
[17] = biological target: dopamine D2 receptors (Homo sapiens (Human), UniProt P14416); details: cited from earlier work
Chain of dopamine D2 receptors (P14416 whole entry): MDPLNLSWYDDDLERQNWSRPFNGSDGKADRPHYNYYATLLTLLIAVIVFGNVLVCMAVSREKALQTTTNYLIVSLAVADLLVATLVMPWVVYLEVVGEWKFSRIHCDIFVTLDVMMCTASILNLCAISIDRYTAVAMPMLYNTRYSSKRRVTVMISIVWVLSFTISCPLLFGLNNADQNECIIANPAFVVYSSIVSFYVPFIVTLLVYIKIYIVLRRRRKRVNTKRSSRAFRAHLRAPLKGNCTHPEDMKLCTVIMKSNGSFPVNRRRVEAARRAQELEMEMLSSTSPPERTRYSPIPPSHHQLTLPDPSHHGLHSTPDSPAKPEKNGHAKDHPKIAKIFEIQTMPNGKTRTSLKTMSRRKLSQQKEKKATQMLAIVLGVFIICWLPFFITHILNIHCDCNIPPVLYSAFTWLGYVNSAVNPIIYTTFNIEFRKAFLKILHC

[18] = dose-range that covers therapeutically relevant exposures; cited from earlier work
[19] = tested on: 5-HT2A/5-HT2C receptors; details: in vivo; cited from earlier work

COc1cccc(CCc2ccccc2OCC(O)CN(C)C)c1 (racemic) [Compound 146, 1-(dimethylamino)-3-(2-(3-methoxyphenethyl)phenoxy)propan-2-ol]
Formation of M1 metabolite of sarpogrelate [1]: rapid | M1/sarpogrelate ratio ([1]; plasma): 2.98±0.597% | total brain concentration vs blood concentration ([2]; 30, 60, 120 and 240 min): significantly exceeded the blood concentration | penetration into the brain [2]: readily penetrates into the brain | inhibition type (Dixon plots) [3]: fit well to all competitive inhibition types

CC(C)COc1ccc(CNC(=O)N(Cc2ccc(F)cc2)C2CCN(C)CC2)cc1 [ACP-103, N-(4-fluorophenylmethyl)-N-(1-methylpiperidin-4-yl)-N′-(4-(2-methylpropyloxy)phenylmethyl) carbamide (2R,3R)-dihydroxybutanedioate (2:1)]
MK-801-induced hyperactivity [4]: significantly attenuated MK-801-induced hyperactivity | night-time sleep and daytime wakefulness ([5]; compared with placebo): improvements on night-time sleep and daytime wakefulness | psychotic symptoms (hallucinations and delusions) ([5]; patients with moderate to severe Parkinson's disease): significantly reduced psychotic symptoms

CN1CC[C@@]23CCCC[C@@H]2[C@@H]1Cc1ccc(O)cc13 [DO, dextrorphan]
PCP-elicited hyperactivity / motor behaviors after pretreatment [6]: facilitated | PCP-elicited hyperactivity / motor behaviors after pretreatment ([6]; listed as dextrorphan): but not its metabolite dextrorphan | behavioral effects given alone (locomotor hyperactivity, stereotypy, ataxia) [6]: dose-dependent locomotor hyperactivity, stereotypy and ataxia | basal insulin secretion [7]: did not significantly alter basal insulin secretion | affinity for NMDA receptors [8]: substantially higher affinity

COc1ccc2c(c1)[C@@]13CCCC[C@H]1[C@@H](C2)N(C)CC3 [dextromethorphan, 3-methoxy-17-methylmorphinan]
motor activity in PCP-treated rats ([9]; oral administration): enhanced | motor activity in PCP-treated rats ([9]; subcutaneous administration): reduced | blood glucose level (AUC 30-180 min after oral glucose 2 g/kg) [10]: significantly reduced blood glucose level | PCP-elicited hyperactivity / motor behaviors after pretreatment [6]: attenuate phencyclidine-induced motor behaviors | PCP-elicited hyperactivity / motor behaviors after pretreatment ([6]; listed as DEX): dose-dependently inhibited | behavioral effects given alone (locomotor hyperactivity, stereotypy, ataxia) [6]: induced moderate hyperactivity only at the higher doses | glucose-induced plasma insulin concentrations and glucose tolerance ([7]; DEX via drinking water 4 mg/ml overnight, glucose i.p., mice): significantly higher glucose-induced plasma insulin concentrations and glucose tolerance | basal plasma insulin and fasting blood glucose concentrations ([7]; DEX via drinking water 4 mg/ml overnight, mice): changed neither basal plasma insulin nor fasting blood glucose concentrations | basal insulin secretion [7]: did not significantly alter basal insulin secretion | protection of dopamine neurons [11]: protected dopamine neurons against lipopolysaccharide (LPS)-induced reduction of dopamine uptake | area under the curve of blood glucose concentrations within the first 2 h of the OGTT (glucose AUC1-3 h) ([12]; 270 mg DEX vs placebo): significantly (P<0.05) smaller | maximal serum insulin concentrations following oral glucose intake ([12]; 60 and 270 mg DEX vs placebo): significantly (P<0.05) higher maximal serum insulin concentrations | fasting serum insulin and fasting blood glucose concentrations ([12]; single oral dose 60 or 270 mg, males with T2DM on metformin): led to neither higher fasting serum insulin concentrations nor lower fasting blood glucose concentrations | severe hypoglycemic events ([12]; up to a dose of 270 mg): did not provoke any severe hypoglycemic events | heart rate, blood pressure, temperature, and plasma bromide [13]: mild elevations of heart rate, blood pressure, temperature, and plasma bromide

CN(C)CCO/N=C(/C=C/c1ccc(O)cc1)c1ccccc1F [eplivanserin]
clinical efficacy in insomnia [14]: demonstrated clinical efficacy in patients with insomnia

CNC1(c2ccccc2Cl)CCCCC1=O (stereo not shown) [ketamine, 2-(2-chlorophenyl)-2-(methylamino)cyclohexan-1-one]
antidepressant activity [15]: rapid and robust antidepressant activity

COC(=O)c1c2n(c3ccccc13)Cc1ccccc1N1CCN(C)CC21.Cl (stereo not shown) [serazepine]
efficacy in generalized anxiety disorder [16]: shown efficacy

N,N-dimethyl-2-[[(1R,3S,4R)-4,7,7-trimethyl-3-phenyl-3-bicyclo[2.2.1] heptanyl] oxy]ethanamine [Compound 829]
selectivity against dopamine D2 receptors [17]: at least 10 fold | prolactin [18]: not found to elevate prolactin | down-regulation of 5-HT2A/5-HT2C receptors [19]: does not induce down-regulation of these receptors
